What all share (format): binding
Test [1] has as its target T1, mSin3B PAH1 domain (Mus musculus, UniProt Q62141).
T1 construct: gene Sin3b; PAH1 domain, a.a; 28–107 with a Met at the N-terminus (GST fusion for WaterLOGSY/STD)
T1 sequence (Q62141 28-107): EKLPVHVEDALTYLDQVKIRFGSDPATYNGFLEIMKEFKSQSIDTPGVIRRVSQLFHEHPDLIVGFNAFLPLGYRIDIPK
In words: 1H-15N HSQC titration, STD and WaterLOGSY NMR.

In test [2] the target is T1, mSin3B PAH1 domain. In words: WaterLOGSY NMR titration; STD and 1H-15N HSQC.
Test [3] addresses T1, mSin3B PAH1 domain. In words: 1H-15N HSQC, STD and WaterLOGSY NMR (weak/moderate).
Test [4] addresses T1, mSin3B PAH1 domain. In words: STD, WaterLOGSY and HSQC NMR.

Molecules are shown by their SMILES.

Regarding `C#CC(C)(O)CCc1cc(C)c(OC)cc1C` (stereo not shown) [YN3], the “1H-15N HSQC titration, STD and WaterLOGSY NMR” value in test [1] is “four compounds YN29, YN31, YN3, and YN28, have a strong affinity for the mSin3B PAH1 domain”.
Turning to `CN(C)CC/C=C1/c2ccccc2Sc2ccc(Cl)cc21` [YN28, chlorprothixene], the affinity in test [2], expressed as Kd, was 35 ± 11 µM.
Same read-out and setting: then `CN(C)CCCN1c2ccccc2Sc2ccc(Cl)cc21` [YN29, chlorpromazine], with 15 ± 4.2 µM.
Take `COc1cc(CNC(=O)CCCC/C=C/C(C)C)ccc1O` [YN39]: the “1H-15N HSQC, STD and WaterLOGSY NMR (weak/moderate)” value in test [3] is “only YN39, YN40, and YN42 showed clear signals in the STD spectra”.
Still for that read-out and setting: then `CNCCCC12CCC(c3ccccc31)c1ccccc12` [YN40], with “only YN39, YN40, and YN42 showed clear signals in the STD spectra”; and `Clc1ccc2c(c1)C(N1CCNCC1)=Nc1ccccc1O2` [YN42], with “only YN39, YN40, and YN42 showed clear signals in the STD spectra”.
Consider `Fc1ccc([C@@H]2CCNC[C@H]2COc2ccc3c(c2)OCO3)cc1` [paroxetine], for which, in test [4], the “STD, WaterLOGSY and HSQC NMR” value was “STD, WaterLOGSY, and HSQC experiments showed that paroxetine binds strongly to the PAH1 domain of mSin3B”.

The values are drawn from article PMC6137095 (Scientific Reports, 2018).
